Source: US9676766B2, “Triazolopyridines” (BAYER INTELLECTUAL PROPERTY GMBH, priority 2009, dated 2017)
pIC50: −log10 of the molar value.

target: T1, human kinase Mps-1 (Homo sapiens, UniProt P33981); test: Mps-1 Kinase Assay (TR-FRET); assay type: biochemical; settings: N-terminally GST-tagged human full length recombinant Mps-1; 10 μM ATP; 1 μM biotinylated peptide substrate; 60 min at 22° C.; read-out: MPS1 Inhibition, IC50 in M
T1 construct: N-terminally GST-tagged human full length recombinant Mps-1 kinase; purchased Invitrogen, Karslruhe, Germany PV4071
T1 sequence (P33981 1-857): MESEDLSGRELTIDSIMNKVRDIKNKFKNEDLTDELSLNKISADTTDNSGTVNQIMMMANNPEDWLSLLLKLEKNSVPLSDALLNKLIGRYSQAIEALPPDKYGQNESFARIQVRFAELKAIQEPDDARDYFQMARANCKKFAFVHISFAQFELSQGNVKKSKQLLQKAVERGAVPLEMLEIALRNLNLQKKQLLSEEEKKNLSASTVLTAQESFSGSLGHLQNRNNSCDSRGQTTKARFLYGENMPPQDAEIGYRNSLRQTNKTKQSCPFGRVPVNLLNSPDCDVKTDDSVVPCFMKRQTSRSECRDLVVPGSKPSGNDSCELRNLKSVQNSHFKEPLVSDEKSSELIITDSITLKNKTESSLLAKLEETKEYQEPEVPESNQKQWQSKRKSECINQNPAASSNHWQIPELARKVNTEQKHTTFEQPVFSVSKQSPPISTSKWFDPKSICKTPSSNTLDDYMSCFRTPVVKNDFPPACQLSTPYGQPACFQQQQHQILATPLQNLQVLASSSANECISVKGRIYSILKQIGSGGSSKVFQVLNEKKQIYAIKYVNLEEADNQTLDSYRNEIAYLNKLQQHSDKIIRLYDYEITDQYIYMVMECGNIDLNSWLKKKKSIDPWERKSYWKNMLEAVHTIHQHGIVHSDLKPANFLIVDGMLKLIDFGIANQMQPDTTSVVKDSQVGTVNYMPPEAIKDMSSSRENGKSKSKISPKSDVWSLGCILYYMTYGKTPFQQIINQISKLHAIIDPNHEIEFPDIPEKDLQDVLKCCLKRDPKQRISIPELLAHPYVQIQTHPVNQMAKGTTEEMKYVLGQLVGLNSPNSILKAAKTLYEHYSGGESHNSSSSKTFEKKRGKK

pIC50	Compound
6.74	O=C(Nc1ccc(-c2ccc3nc(Nc4ccccc4C(F)(F)F)nn3c2)cc1)C1CC1 [Example 5.2, N-[4-(2-{[2-(trifluoromethyl)phenyl]amino}[1,2,4]triazolo[1,5-a]pyridin-6-yl)phenyl]cyclopropanecarboxamide]
7.41	COc1ccccc1Nc1nc2ccc(-c3ccc(NC(=O)C4CC4)cc3)cn2n1 [Example 4.3, N-(4-{2-[(2-methoxyphenyl)amino][1,2,4]triazolo[1,5-a]pyridin-6-yl}phenyl)cyclopropanecarboxamide]
7.13	CN1CCC(NC(=O)c2cccc(-c3ccc4nc(Nc5ccccc5C#N)nn4c3)c2)CC1 [Example 9.3, 3-{2-[(2-cyanophenyl)amino][1,2,4]triazolo[1,5-a]pyridin-6-yl}-N-(1-methylpiperidin-4-yl)benzamide]
6.36	COc1ccccc1Nc1nc2ccc(-c3cccc(NC(=O)Nc4ccccc4)c3)cn2n1 [Example 8.5, 1-(3-{2-[(2-methoxyphenyl)amino][1,2,4]triazolo[1,5-a]pyridin-6-yl}phenyl)-3-phenylurea]
7.57	COc1ccccc1Nc1nc2ccc(-c3ccc(NC(=O)CC4CC4)cc3)cn2n1 [Example 4.2, 2-cyclopropyl-N-(4-{2-[(2-methoxyphenyl)amino][1,2,4]triazolo[1,5-a]pyridin-6-yl}phenyl)acetamide]
6.54	COc1ccccc1Nc1nc2ccc(-c3cccc(NS(=O)(=O)C4CC4)c3)cn2n1 [Example 8.4, N-(3-{2-[(2-methoxyphenyl)amino][1,2,4]triazolo[1,5-a]pyridin-6-yl}phenyl)cyclopropanesulfonamide]
6.33	COc1ccccc1Nc1nc2ccc(-c3cccc(NC(=O)NCCN4CCOCC4)c3)cn2n1 [Example 8.13, 1-(3-{2-[(2-methoxyphenyl)amino][1,2,4]triazolo[1,5-a]pyridin-6-yl}phenyl)-3-[2-(morpholin-4-yl)ethyl]urea]
5.66	CN1CCN(CC(=O)Nc2ccc(-c3ccc4nc(Nc5ccccc5C(F)(F)F)nn4c3)cc2)CC1 [Example 5.4, 2-(4-methylpiperazin-1-yl)-N-[4-(2-{[2-(trifluoromethyl)phenyl]amino}[1,2,4]triazolo[1,5-a]pyridin-6-yl)phenyl]acetamide]
